Results reported in patent US8609690B2, “Aryl- and heteroarylcarbonyl derivatives of substituted nortropanes, medicaments containing such compounds and their use” (Boehringer Ingelheim International GmbH, priority 2008, dated 2013).

Target: T1, 11β-HSD 1 (Homo sapiens, UniProt P28845)
T1 construct: detecting cortisol generated from cortisterone by human liver microsomes; from tissue; host or cells: human liver microsomes
Test: In vitro inhibition of 11β-HSD 1, HTRF detection of cortisol generated by human liver microsomes
Format: biochemical
Details: 1 μM test compound, 100% indicates no inhibition, zero or below zero indicates complete inhibition (relative to carbenoxolone)
How it was run: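 Human liver microsomes with test compound were incubated 1 h at 37 °C in Tris buffer, pH 6.0, with 200 μM NADPH and 80 nM cortisone. Cortisol formed was detected by competitive HTRF immunoassay (665/615 nm ratio) and calibrated against a cortisol standard curve. Values are activities at 1 μM compound relative to carbenoxolone, where 100% indicates no inhibition.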

T1 sequence (P28845 whole entry): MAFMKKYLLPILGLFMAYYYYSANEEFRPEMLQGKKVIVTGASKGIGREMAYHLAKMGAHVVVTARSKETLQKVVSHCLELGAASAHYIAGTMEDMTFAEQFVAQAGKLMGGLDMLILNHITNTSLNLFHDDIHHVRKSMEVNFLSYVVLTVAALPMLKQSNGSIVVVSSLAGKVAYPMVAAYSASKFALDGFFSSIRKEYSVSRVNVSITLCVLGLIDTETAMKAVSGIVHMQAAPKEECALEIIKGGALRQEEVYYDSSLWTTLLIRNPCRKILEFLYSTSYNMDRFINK

Structure (SMILES) | Inhibitory activity on 11β-HSD 1, % CTL
O=C(c1ccc2[nH]ccc2c1)N1[C@@H]2CC[C@H]1C[C@@H](c1ccc(F)cc1)C2 [Example 113, endo-[3-(4-Fluoro-phenyl)-8-aza-bicyclo[3.2.1]oct-8-yl]-(1H-indol-5-yl)-methanone] | −23 % CTL
O=C(c1ccc2c(c1)OCO2)N1[C@@H]2CC[C@H]1C[C@@H](c1ccc(F)cc1)C2 [Example 114, endo-Benzo[1,3]dioxol-5-yl-[3-(4-fluoro-phenyl)-8-aza-bicyclo[3.2.1]oct-8-yl]-methanone] | −10 % CTL
CC(=O)Nc1ccc(C(=O)N2[C@@H]3CC[C@H]2C[C@@H](c2ccc(F)cc2)C3)cc1 [Example 115, endo-N-{4-[3-(4-Fluoro-phenyl)-8-aza-bicyclo[3.2.1]octane-8-carbonyl]-phenyl}-acetamide] | 33 % CTL
COc1ccc(C(=O)N2[C@@H]3CC[C@H]2C[C@@H](c2ccc(F)cc2)C3)c(OC)c1 [Example 117, endo-(2,4-Dimethoxy-phenyl)-[3-(4-fluoro-phenyl)-8-aza-bicyclo[3.2.1]oct-8-yl]-methanone] | 53 % CTL
COc1ccc(C(=O)N2[C@@H]3CC[C@H]2C[C@@H](c2ccc(F)cc2)C3)cc1OC [Example 118, endo-(3,4-Dimethoxy-phenyl)-[3-(4-fluoro-phenyl)-8-aza-bicyclo[3.2.1]oct-8-yl]-methanone] | −28 % CTL
NS(=O)(=O)c1ccc(C(=O)N2[C@@H]3CC[C@H]2C[C@@H](c2ccc(F)cc2)C3)cc1 [Example 119, endo-4-[3-(4-Fluoro-phenyl)-8-aza-bicyclo[3.2.1]octane-8-carbonyl]-benzenesulfonamide] | 95 % CTL
O=C(c1ccc2nn[nH]c2c1)N1[C@@H]2CC[C@H]1C[C@@H](c1ccc(F)cc1)C2 [Example 120, endo-(3H-Benzotriazol-5-yl)-[3-(4-fluoro-phenyl)-8-aza-bicyclo[3.2.1]oct-8-yl]-methanone] | 25 % CTL
O=C(c1ccc(CO)cc1)N1[C@@H]2CC[C@H]1C[C@@H](c1ccc(F)cc1)C2 [Example 121, endo-[3-(4-Fluoro-phenyl)-8-aza-bicyclo[3.2.1]oct-8-yl]-(4-hydroxymethyl-phenyl)-methanone] | −28 % CTL
Cc1ccc(C(=O)N2[C@@H]3CC[C@H]2C[C@@H](c2ccc(F)cc2)C3)c(C)c1 [Example 122, endo-(2,4-Dimethyl-phenyl)-[3-(4-fluoro-phenyl)-8-aza-bicyclo[3.2.1]oct-8-yl]-methanone] | 63 % CTL
COc1cc(OC)cc(C(=O)N2[C@@H]3CC[C@H]2C[C@@H](c2ccc(F)cc2)C3)c1 [Example 123, endo-(3,5-Dimethoxy-phenyl)-[3-(4-fluoro-phenyl)-8-aza-bicyclo[3.2.1]oct-8-yl]-methanone] | −17 % CTL
CC(=O)c1cccc(C(=O)N2[C@@H]3CC[C@H]2C[C@@H](c2ccc(F)cc2)C3)c1 [Example 124, endo-1-{3-[3-(4-Fluoro-phenyl)-8-aza-bicyclo[3.2.1]octane-8-carbonyl]-phenyl}-ethanone] | 59 % CTL
O=C(c1cccc(Cl)c1)N1[C@@H]2CC[C@H]1C[C@@H](c1ccc(F)cc1)C2 [Example 125, endo-(3-Chloro-phenyl)-[3-(4-fluoro-phenyl)-8-aza-bicyclo[3.2.1]oct-8-yl]-methanone] | 7 % CTL
CC(=O)c1ccccc1C(=O)N1[C@@H]2CC[C@H]1C[C@@H](c1ccc(F)cc1)C2 [Example 126, endo-1-{2-[3-(4-Fluoro-phenyl)-8-aza-bicyclo[3.2.1]octane-8-carbonyl]-phenyl}-ethanone] | 63 % CTL
COc1cccc(C(=O)N2[C@@H]3CC[C@H]2C[C@@H](c2ccc(F)cc2)C3)c1OC [Example 127, endo-(2,3-Dimethoxy-phenyl)-[3-(4-fluoro-phenyl)-8-aza-bicyclo[3.2.1]oct-8-yl]-methanone] | 85 % CTL
CC(=O)c1ccc(C(=O)N2[C@@H]3CC[C@H]2C[C@@H](c2ccc(F)cc2)C3)cc1 [Example 128, endo-1-{4-[3-(4-Fluoro-phenyl)-8-aza-bicyclo[3.2.1]octane-8-carbonyl]-phenyl}-ethanone] | 79 % CTL
O=C(c1cccc(O)c1)N1[C@@H]2CC[C@H]1C[C@@H](c1ccc(F)cc1)C2 [Example 129, endo-[3-(4-Fluoro-phenyl)-8-aza-bicyclo[3.2.1]oct-8-yl]-(3-hydroxy-phenyl)-methanone] | −1 % CTL
O=C(c1ccc(O)cc1)N1[C@@H]2CC[C@H]1C[C@@H](c1ccc(F)cc1)C2 [Example 130, endo-[3-(4-Fluoro-phenyl)-8-aza-bicyclo[3.2.1]oct-8-yl]-(4-hydroxy-phenyl)-methanone] | −47 % CTL

Structure (SMILES) | Inhibitory activity on 11β-HSD 1, % CTL
Cn1ccc2cc(C(=O)N3[C@@H]4CC[C@H]3C[C@@H](c3ccc(F)cc3)C4)ccc21 [Example 131, endo-[3-(4-Fluoro-phenyl)-8-aza-bicyclo[3.2.1]oct-8-yl]-(1-methyl-1H-indol-5-yl)-methanone] | −20 % CTL
Cc1[nH]c2ccc(C(=O)N3[C@@H]4CC[C@H]3C[C@@H](c3ccc(F)cc3)C4)cc2c1C [Example 132, endo-(2,3-Dimethyl-1H-indol-5-yl)-[3-(4-fluoro-phenyl)-8-aza-bicyclo[3.2.1]oct-8-yl]-methanone] | −36 % CTL
O=C(c1ccc2c(c1)OCCO2)N1C2CCC1CC(c1ccccc1)C2 (stereo not drawn) [Example 133, (2,3-Dihydro-benzo[1,4]dioxin-6-yl)-(3-phenyl-8-aza-bicyclo[3.2.1]oct-8-yl)-methanone] | −28 % CTL
COc1ccc([C@H]2C[C@H]3CC[C@@H](C2)N3C(=O)c2ccc3c(c2)OCCO3)cc1 [Example 134, endo-(2,3-Dihydro-benzo[1,4]dioxin-6-yl)-[3-(4-methoxy-phenyl)-8-aza-bicyclo[3.2.1]oct-8-yl]-methanone] | −5 % CTL
COc1ccc([C@@H]2C[C@H]3CC[C@@H](C2)N3C(=O)c2ccc3c(c2)OCCO3)cc1 [Example 135, exo-(2,3-Dihydro-benzo[1,4]dioxin-6-yl)-[3-(4-methoxy-phenyl)-8-aza-bicyclo[3.2.1]oct-8-yl]-methanone] | −35 % CTL
CC(C)c1ccc([C@H]2C[C@H]3CC[C@@H](C2)N3C(=O)c2ccc3c(c2)OCCO3)cc1 [Example 136, endo-(2,3-Dihydro-benzo[1,4]dioxin-6-yl)-[3-(4-isopropyl-phenyl)-8-aza-bicyclo[3.2.1]oct-8-yl]-methanone] | 17 % CTL
Cc1ccc([C@H]2C[C@H]3CC[C@@H](C2)N3C(=O)c2ccc3c(c2)OCCO3)cc1 [Example 138, endo-(2,3-Dihydro-benzo[1,4]dioxin-6-yl)-(3-p-tolyl-8-aza-bicyclo[3.2.1]oct-8-yl)-methanone] | 4 % CTL
COc1cccc([C@H]2C[C@H]3CC[C@@H](C2)N3C(=O)c2ccc3c(c2)OCCO3)c1 [Example 139, endo-(2,3-Dihydro-benzo[1,4]dioxin-6-yl)-[3-(3-methoxy-phenyl)-8-aza-bicyclo[3.2.1]oct-8-yl]-methanone] | 21 % CTL
O=C(c1ccc2c(c1)OCCO2)N1[C@@H]2CC[C@H]1C[C@@H](c1ccc(OC(F)(F)F)cc1)C2 [Example 140, endo-(2,3-Dihydro-benzo[1,4]dioxin-6-yl)-[3-(4-trifluoromethoxy-phenyl)-8-aza-bicyclo[3.2.1]oct-8-yl]-methanone] | −5 % CTL
O=C(c1ccc2c(c1)OCCO2)N1[C@@H]2CC[C@H]1C[C@@H](c1cccc(O)c1)C2 [Example 141, endo-(2,3-Dihydro-benzo[1,4]dioxin-6-yl)-[3-(3-hydroxy-phenyl)-8-aza-bicyclo[3.2.1]oct-8-yl]-methanone] | 29 % CTL
O=C(c1ccc2c(c1)OCCO2)N1[C@@H]2CC[C@H]1C[C@@H](c1ccc(O)cc1)C2 [Example 142, endo-(2,3-Dihydro-benzo[1,4]dioxin-6-yl)-[3-(4-hydroxy-phenyl)-8-aza-bicyclo[3.2.1]oct-8-yl]-methanone] | 31 % CTL
C[Si](C)(C)c1ccc([C@H]2C[C@H]3CC[C@@H](C2)N3C(=O)c2ccc3c(c2)OCCO3)cc1 [Example 143, endo-(2,3-Dihydro-benzo[1,4]dioxin-6-yl)-[3-(4-trimethyl-silyl-phenyl)-8-aza-bicyclo[3.2.1]oct-8-yl]-methanone] | 58 % CTL
O=C(c1ccc2c(c1)OCCO2)N1C2CCC1CC(c1ccc(Cl)cc1F)C2 (stereo not drawn) [Example 144, [3-(4-Chloro-2-fluoro-phenyl)-8-aza-bicyclo[3.2.1]oct-8-yl]-(2,3-dihydro-benzo[1,4]dioxin-6-yl)-methanone] | −59 % CTL
O=C(c1ccc2c(c1)OCCO2)N1C2CCC1CC(c1ccccc1F)C2 (stereo not drawn) [Example 145, (2,3-Dihydro-benzo[1,4]dioxin-6-yl)-[3-(2-fluoro-phenyl)-8-aza-bicyclo[3.2.1]oct-8-yl]-methanone] | −37 % CTL
NCc1ccc(C2CC3CCC(C2)N3C(=O)c2ccc3c(c2)OCCO3)cc1 (stereo not drawn) [Example 146, [3-(4-Aminomethyl-phenyl)-8-aza-bicyclo[3.2.1]oct-8-yl]-(2,3-dihydro-benzo[1,4]dioxin-6-yl)-methanone] | 96 % CTL
NCc1cccc([C@@H]2C[C@H]3CC[C@@H](C2)N3C(=O)c2ccc3c(c2)OCCO3)c1 [Example 147, exo-[3-(3-Aminomethyl-phenyl)-8-aza-bicyclo[3.2.1]oct-8-yl]-(2,3-dihydro-benzo[1,4]dioxin-6-yl)-methanone] | 99 % CTL
